In the case of `C[C@@H](Nc1ncnc2[nH]c(-c3ccc(CN4CCN(C)CC4)cc3)cc12)c1ccccc1` [Example 9, {6-[4-(4-Methyl-piperazin-1-ylmethyl)-phenyl]-7H-pyrrolo[2,3-d]pyrimidin-4-yl}-((R)-1-phenyl-ethyl)-amine], the melting point is reported as 248 to 250 °C.
Compound `CN(C)Cc1ccc(-c2cc3c(Nc4ccc(OCc5ccccc5)cc4)ncnc3[nH]2)cc1` [Example 17, (4-Benzyloxy-phenyl)-[6-(4-dimethylaminomethyl-phenyl)-7H-pyrrolo[2,3-d]pyrimidin-4-yl]-amine] has a melting point of 272 to 274 °C.
`C[C@@H](Nc1ncnc2[nH]c(-c3ccc(CNC(=O)CCN4CCCCC4)cc3)cc12)c1ccccc1` [Example 54, N-{4-[4-((R)-1-Phenyl-ethylamino)-7H-pyrrolo[2,3-d]pyrimidin-6-yl]-benzyl}-3-piperidin-1-yl-propionamide] gave a melting point of 140 °C.
For `Clc1ccccc1CNc1ncnc2[nH]c(-c3ccc(CN4CCCCC4)cc3)cc12` [Example 92, (2-Chloro-benzyl)-[6-(4-piperidin-1-ylmethyl-phenyl)-7H-pyrrolo[2,3-d]pyrimidin-4-yl]-amine], the melting point was 262 to 264 °C.
In the case of `C[C@@H](Nc1ncnc2[nH]c(-c3ccc(CNC(=O)CN4CCOCC4)cc3)cc12)c1ccccc1` [Example 42, 2-Morpholin-4-yl-N-{4-[4-((R)-1-phenyl-ethyl-amino)-7H-pyrrolo[2,3-d]pyrimidin-6-yl]-benzyl}-acetamide], the melting point is reported as 199 to 202 °C.
Work on `C[C@@H](Nc1ncnc2[nH]c(-c3ccc(CN(CCO)CCO)cc3)cc12)c1ccccc1` [Example 82, 2-((2-Hydroxy-ethyl)-{4-[4-((R)-1-phenyl-ethylamino)-7H-pyrrolo[2,3-d]pyrimidin-6-yl]-benzyl}-amino)-ethanol] yielded a melting point of 194 to 197 °C.
With `COc1cccc(CNc2ncnc3[nH]c(-c4ccc(CN5CCN(C)CC5)cc4)cc23)c1` [Example 107b, (3-Methoxy-benzyl)-{6-[4-(4-methyl-piperazin-1-ylmethyl)-phenyl]-7H-pyrrolo[2,3-d]pyrimidin-4-yl}-amine] the melting point was 225 to 227 °C.
In the case of `CC(C)NCc1ccc(-c2cc3c(N[C@H](C)c4ccccc4)ncnc3[nH]2)cc1` [Example 16e, {6-[4-(isopropylamino-methyl)-phenyl]-7H-pyrrolo[2,3-d]pyrimidin-4-yl}-((R)-1-phenyl-ethyl)-amine], the melting point is reported as 266 to 268 °C.
Work on `CCN(CC)Cc1ccc(-c2cc3c(NCc4ccccc4Cl)ncnc3[nH]2)cc1` [Example 96, (2-Chloro-benzyl)-[6-(4-diethylaminomethyl-phenyl)-7H-pyrrolo[2,3-d]pyrimidin-4-yl]-amine] yielded a melting point of 257 to 258 °C.
`CCN(CC)CCNCc1ccc(-c2cc3c(Nc4ccc(F)c(Cl)c4)ncnc3[nH]2)cc1` [Example 8c, N-{4-[4-(3-Chloro-4-fluoro-phenylamino)-7H-pyrrolo[2,3-d]pyrimidin-6-yl]-benzyl}-N′,N′-diethyl-ethane-1,2-diamine] showed a melting point of 229 to 231 °C.
`CCN(CC)CCC(=O)NCc1ccc(-c2cc3c(N[C@H](C)c4ccccc4)ncnc3[nH]2)cc1` [Example 55, 3-Diethylamino-N-{4-[4-((R)-1-phenyl-ethyl-amino)-7H-pyrrolo[2,3-d]pyrimidin-6-yl]-benzyl}-propionamide] showed a melting point of 175 to 177 °C.
In the case of `CCN(CC)CCC(=O)NCc1ccc(-c2cc3c(Nc4ccc(F)c(Cl)c4)ncnc3[nH]2)cc1` [Example 58, N-{4-[4-(3-Chloro-4-fluoro-phenylamino)-7H-pyrrolo[2,3-d]pyrimidin-6-yl]-benzyl}-3-diethylamino-propionamide], the melting point is reported as 229 to 232 °C.
Work on `CN1CCN(Cc2ccc(-c3cc4c(NCc5cccc(Cl)c5)ncnc4[nH]3)cc2)CC1` [Example 89, (3-Chloro-benzyl)-{6-[4-(4-methyl-piperazin-1-ylmethyl)-phenyl]-7H-pyrrolo[2,3-d]pyrimidin-4-yl}-amine] yielded a melting point of 235 to 237 °C.
With `Fc1ccc(Nc2ncnc3[nH]c(-c4cccc(CN5CCCCC5)c4)cc23)cc1Cl` [Example 38, (3-Chloro-4-fluoro-phenyl)-[6-(3-piperidin-1-ylmethyl-phenyl)-7H-pyrrolo[2,3-d]pyrimidin-4-yl]-amine] the melting point was 233 to 235 °C.
`CCN(CC)CCNCc1ccc(-c2cc3c(N[C@H](C)c4ccccc4)ncnc3[nH]2)cc1` [Example 16c, N,N-Diethyl-N′-{4-[4-((R)-1-phenyl-ethyl-amino)-7H-pyrrolo[2,3-d]pyrimidin-6-yl]-benzyl}-ethane-1,2-diamine] showed a melting point of 145 to 150 °C.
`CCN1CCN(Cc2ccc(-c3cc4c(NCc5cccc(OC)c5)ncnc4[nH]3)cc2)CC1` [Example 107c, {6-[4-(4-Ethyl-piperazin-1-ylmethyl)-phenyl]-7H-pyrrolo[2,3-d]pyrimidin-4-yl}-(3-methoxy-benzyl)-amine] gave a melting point of 231 to 233 °C.
`C[C@@H](Nc1ncnc2[nH]c(-c3ccc(CNC(=O)CN4CCCC4)cc3)cc12)c1ccccc1` [Example 41, N-{4-[4-((R)-1-Phenyl-ethylamino)-7H-pyrrolo[2,3-d]pyrimidin-6-yl]-benzyl}-2-pyrrolidin-1-yl-acetamide] showed a melting point of 196 to 198 °C.
With `C[C@@H](Nc1ncnc2[nH]c(-c3ccc(CNC(=O)CN4CCCCC4)cc3)cc12)c1ccccc1` [Example 40, N-{4-[4-((R)-1-Phenyl-ethylamino)-7H-pyrrolo[2,3-d]pyrimidin-6-yl]-benzyl}-2-piperidin-1-yl-acetamide] the melting point was 194 to 196 °C.
With `Fc1ccc(Nc2ncnc3[nH]c(-c4cccc(CN5CCOCC5)c4)cc23)cc1Cl` [Example 39, (3-Chloro-4-fluoro-phenyl)-[6-(3-morpholin-4-ylmethyl-phenyl)-7H-pyrrolo[2,3-d]pyrimidin-4-yl]-amine] the melting point was 290 to 292 °C.
Compound `Cc1cc2c(F)c(Oc3ncnc4[nH]c(-c5ccc(CN6CCOCC6)cc5)cc34)ccc2[nH]1` [Example 143, 4-(4-Fluoro-2-methyl-1H-indol-5-yloxy)-6-(4-morpholin-4-ylmethyl-phenyl)-7H-pyrrolo[2,3-d]pyrimidine] has a melting point of 280 to 282 °C.
`c1ccc(COc2ccc(Nc3ncnc4[nH]c(-c5ccc(CN6CCCC6)cc5)cc34)cc2)cc1` [Example 23, (4-Benzyloxy-phenyl)-[6-(4-pyrrolidin-1-ylmethyl-phenyl)-7H-pyrrolo[2,3-d]pyrimidin-4-yl]-amine] gave a melting point of 265 to 267 °C.
Compound `CC(C)NCc1ccc(-c2cc3c(Nc4ccc(F)c(Cl)c4)ncnc3[nH]2)cc1` [Example 8d, (3-Chloro-4-fluoro-phenyl)-{6-[4-(iso-propylamino-methyl)-phenyl]-7H-pyrrolo[2,3-d]pyrimidin-4-yl}-amine] has a melting point of 282 to 284 °C.
With `CC1CN(Cc2ccc(-c3cc4c(Nc5ccc(F)c(Cl)c5)ncnc4[nH]3)cc2)CC(C)N1` (stereo not drawn) [Example 8, (3-Chloro-4-fluoro-phenyl)-{6-[4-(3,5-dimethyl-piperazin-1-ylmethyl)-phenyl]-7H-pyrrolo[2,3-d]pyrimidin-4-yl}-amine] the melting point was 261 to 263 °C.
For `COc1ccc(Nc2ncnc3[nH]c(-c4ccc(CN5CCOCC5)cc4)cc23)cn1` [Example 111, (6-Methoxy-pyridin-3-yl)-[6-(4-morpholin-4-ylmethyl-phenyl)-7H-pyrrolo[2,3-d]pyrimidin-4-yl]-amine], the melting point was 263 to 264 °C.

Source: patent publication US7323469B2, “7H-pyrrolo[2,3-d]pyrimidine derivatives” (Novartis AG, priority 2001, dated 2008)
